Measurements reported in ChEMBL document CHEMBL1201862, “PubChem BioAssay data set” (2004).
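Each compound was tested at five concentrations against cells in 96-well plates for 48 hours. GI50 marks 50% less growth.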 Active and inactive are the calls of the source. Cut-off read from the data, not from the text of the source: active = GI50 up to about 1.1 µM and inactive = higher.

Tests used:
Test in all cases: NCI-60 cell line screen, 48 h
OVCAR-4 = system: OVCAR-4
SK-MEL-28 = system: SK-MEL-28
CCRF-CEM = system: CCRF-CEM
HCT-116 = system: HCT-116
A549 = system: A549
RXF 393 = system: RXF 393
M19-MEL = system: M19-MEL
HT-29 = system: HT-29
NCI-H23 = system: NCI-H23
SK-MEL-5 = system: SK-MEL-5
SR = system: SR
TK-10 = system: TK-10
SF-295 = system: SF-295
MOLT-4 = system: MOLT-4
SNB-78 = system: SNB-78
EKVX = system: EKVX
SNB-19 = system: SNB-19
NCI-H460 = system: NCI-H460
SF-268 = system: SF-268
COLO 205 = system: COLO 205
KM12 = system: KM12
ACHN = system: ACHN
HCT-15 = system: HCT-15
SN12C = system: SN12C
HOP-62 = system: HOP-62
LXFL 529 = system: LXFL 529
OVCAR-5 = system: OVCAR-5
UO-31 = system: UO-31
M14 = system: M14
DMS-273 = system: DMS-273
LOX IMVI = system: LOX IMVI
RPMI-8226 = system: RPMI-8226
OVCAR-3 = system: OVCAR-3
786-0 = system: 786-0
DMS-114 = system: DMS-114
UACC-62 = system: UACC-62
OVCAR-8 = system: OVCAR-8
HOP-18 = system: HOP-18
SNB-75 = system: SNB-75
KM-20L2 = system: KM-20L2
NCI-H522 = system: NCI-H522
UACC-257 = system: UACC-257
DLD-1 = system: DLD-1
IGROV-1 = system: IGROV-1
SK-MEL-2 = system: SK-MEL-2
U-251 = system: U-251
K562 = system: K562
HL-60 = system: HL-60
Malme-3M = system: Malme-3M
SW-620 = system: SW-620
A498 = system: A498
SF-539 = system: SF-539
HCC 2998 = system: HCC 2998
HOP-92 = system: HOP-92
CAKI-1 = system: CAKI-1
XF498 = system: XF498
NCI-H226 = system: NCI-H226
SK-OV-3 = system: SK-OV-3

O=C1/C(=C/c2ccccc2)CN(C(=O)C(F)(F)F)C/C1=C\c1ccccc1
GI50 (OVCAR-4): 2.44 µM (inactive)
GI50 (SK-MEL-28): 1.83 µM (inactive)
GI50 (CCRF-CEM): 1.54 µM (inactive)
GI50 (HCT-116): 0.333 µM (active)
GI50 (A549): 3.17 µM (inactive)
GI50 (RXF 393): 1.84 µM (inactive)
GI50 (M19-MEL): 1.61 µM (inactive)
GI50 (HT-29): 1.3 µM (inactive)
GI50 (NCI-H23): 1.83 µM (inactive)
GI50 (SK-MEL-5): 1.71 µM (inactive)
GI50 (SR): 2.02 µM (inactive)
GI50 (TK-10): 3.61 µM (inactive)
GI50 (SF-295): 1.59 µM (inactive)
GI50 (MOLT-4): 3.06 µM (inactive)
GI50 (SNB-78): 2.2 µM (inactive)
GI50 (EKVX): > 10 µM (inactive)
GI50 (SNB-19): 4.28 µM (inactive)
GI50 (NCI-H460): 1.56 µM (inactive)
GI50 (SF-268): 3.94 µM (inactive)
GI50 (COLO 205): 2.42 µM (inactive)
GI50 (KM12): 1.54 µM (inactive)
GI50 (ACHN): 2.24 µM (inactive)
GI50 (HCT-15): 2.03 µM
GI50 (SN12C): 1.7 µM (inactive)
GI50 (HOP-62): 11.5 µM (inactive)
GI50 (LXFL 529): 1.66 µM (inactive)
GI50 (OVCAR-5): 3.46 µM (inactive)
GI50 (UO-31): 2.18 µM (inactive)
GI50 (M14): 1.61 µM (inactive)
GI50 (DMS-273): 1.44 µM (inactive)
GI50 (LOX IMVI): 1.22 µM (inactive)
GI50 (RPMI-8226): 0.165 µM (active)
GI50 (OVCAR-3): 3.25 µM (inactive)
GI50 (786-0): 1.68 µM (inactive)
GI50 (DMS-114): 1.64 µM (inactive)
GI50 (UACC-62): 1.84 µM (inactive)
GI50 (OVCAR-8): 1.64 µM (inactive)
GI50 (HOP-18): 6.82 µM (inactive)
GI50 (SNB-75): 6.58 µM (inactive)
GI50 (KM-20L2): 2.11 µM (inactive)
GI50 (NCI-H522): 2.74 µM (inactive)
GI50 (UACC-257): 1.66 µM (inactive)
GI50 (DLD-1): 2.07 µM (inactive)
GI50 (IGROV-1): 2.29 µM (inactive)
GI50 (SK-MEL-2): 7.98 µM (inactive)
GI50 (U-251): 1.57 µM (inactive)
GI50 (K562): 0.467 µM (active)
GI50 (HL-60): 0.733 µM (active)
GI50 (Malme-3M): 3.72 µM (inactive)
GI50 (SW-620): 0.48 µM (active)
GI50 (A498): 1.98 µM (inactive)
GI50 (SF-539): 1.86 µM (inactive)

CCC1C[N+]23CCc4c([nH]c5ccccc45)C2CC1CC3 (configuration not stated)
GI50 (OVCAR-4): 81.5 µM (inactive)
GI50 (SK-MEL-28): > 100 µM (inactive)
GI50 (CCRF-CEM): 51.2 µM (inactive)
GI50 (HCC 2998): > 100 µM (inactive)
GI50 (HCT-116): > 100 µM (inactive)
GI50 (RXF 393): > 100 µM (inactive)
GI50 (HOP-92): 82.6 µM (inactive)
GI50 (M19-MEL): 52.5 µM (inactive)
GI50 (HT-29): > 100 µM (inactive)
GI50 (CAKI-1): 49.1 µM (inactive)
GI50 (NCI-H23): 69.2 µM (inactive)
GI50 (SK-MEL-5): 22.4 µM (inactive)
GI50 (SR): 39.3 µM (inactive)
GI50 (TK-10): 74.3 µM (inactive)
GI50 (SF-295): > 100 µM (inactive)
GI50 (MOLT-4): 29.8 µM (inactive)
GI50 (EKVX): > 100 µM (inactive)
GI50 (XF498): 42.9 µM (inactive)
GI50 (NCI-H460): 49.4 µM (inactive)
GI50 (SF-268): > 100 µM (inactive)
GI50 (COLO 205): 98.4 µM (inactive)
GI50 (KM12): 64.7 µM (inactive)
GI50 (ACHN): > 100 µM (inactive)
GI50 (HCT-15): 68.2 µM
GI50 (SN12C): 76.4 µM (inactive)
GI50 (HOP-62): > 100 µM (inactive)
GI50 (LXFL 529): 33.8 µM (inactive)
GI50 (OVCAR-5): > 100 µM (inactive)
GI50 (UO-31): 41.4 µM (inactive)
GI50 (M14): > 100 µM (inactive)
GI50 (DMS-273): 55.5 µM (inactive)
GI50 (LOX IMVI): 68.1 µM (inactive)
GI50 (RPMI-8226): 38.8 µM (inactive)
GI50 (OVCAR-3): 55.5 µM (inactive)
GI50 (DMS-114): 53.5 µM (inactive)
GI50 (UACC-62): > 100 µM (inactive)
GI50 (NCI-H226): 45.9 µM (inactive)
GI50 (OVCAR-8): 81.3 µM (inactive)
GI50 (SNB-75): 98.9 µM (inactive)
GI50 (KM-20L2): 97.1 µM (inactive)
GI50 (NCI-H522): 55.1 µM (inactive)
GI50 (SK-OV-3): > 100 µM (inactive)
GI50 (UACC-257): 50.1 µM (inactive)
GI50 (DLD-1): 76 µM (inactive)
GI50 (IGROV-1): 91.6 µM (inactive)
GI50 (SK-MEL-2): > 100 µM (inactive)
GI50 (U-251): 98.6 µM (inactive)
GI50 (K562): 70.8 µM (inactive)
GI50 (Malme-3M): 33.7 µM (inactive)
GI50 (SW-620): > 100 µM (inactive)
